Format in all cases: cell-based
The test system of one assay is Caco-2 cells. The assay is described as follows: Proliferation assay, Caco-2 (crystal violet). Particulars: Homo sapiens, 96 h; Caco-2, 4 days; read-out: Inhibition of Caco-2 cell proliferation IC50. The method, then: (§1) Cultivated tumour cells (HeLa, human cervical tumour cells, ATCC CCL-2; NCI-H460, human non-small cell lung carcinoma cells, ATCC HTB-177; DU 145, hormone-independent human prostate carcinoma cells, ATCC HTB-81; HeLa-MaTu-ADR, multidrug-resistant human cervical carcinoma cells, EPO-GmbH Berlin; Caco-2, human colorectal carcinoma cells, ATCC HTB-37; B16F10, mouse melanoma cells, ATCC CRL-6475) were plated at a density of 5,000 cells/well (DU145, HeLa-MaTu-ADR), 3,000 cells/well (NCI-H460, HeLa), 1,500 cells/well (Caco-2), or 1,000 cells/well (B16F10) in a 96-well multititer plate in 200 μL of their respective growth medium supplemented 10% fetal calf serum. After 24 hours, the cells of one plate (zero-point plate) were stained with crystal violet (see below), while the medium of the other plates was supplemented with the test substances in various concentrations (0 μM, as well as in the range of 0.0001-10 μM; the final concentration of the solvent dimethyl sulfoxide was adjusted to 0.1%) using a Hewlett-Packard HP D300 Digital Dispenser. The cells were incubated for 4 days in the presence of test substances. Cell proliferation was determined by staining the cells with crystal violet: the cells were fixed by adding 20 μl/measuring point of an 11% glutaric aldehyde solution for 15 minutes at room temperature. After three washing cycles of the fixed cells with water, the plates were dried at room temperature. The cells were stained by adding 100 μl/measuring point of a 0.1% crystal violet solution (pH 3.0). After three washing cycles of the stained cells with water, the plates were dried at room temperature. The dye was dissolved by adding 100 μl/measuring point of a 10% acetic acid solution. The extinction was determined by photometry at a wavelength of 595 nm. The change of cell number, in percent, was calculated by normalization of the measured values to the extinction values of the zero-point plate (=0%) and the extinction of the untreated (0 Wm) cells (=100%). The IC50 values (inhibitory concentration at 50% of maximal effect) were determined by means of a 4 parameter fit.

In a further assay the test system is MOLM-13 cells. Nature of the assay: Proliferation assay, MOLM-13 (Cell Titre-Glo). The note with it: Homo sapiens; MOLM-13, 72-hour exposure; read-out: Inhibition of MOLM-13 cell proliferation IC50. As for the experimental part: A2780 human ovarian carcinoma cells (ECACC #93112519) and non-adherent MOLM-13 human acute myeloid leukemia cells (DSMZ ACC 554) were seeded at a density of 3,000 cell/well (A2780) or 5,000 cells/well (MOLM-13) in a 96-well multititer plate in 150 μL of growth medium supplemented 10% fetal calf serum. After 24 hours, cell viability of one plate (zero-point plate) was determined with the Cell Titre-Glo Luminescent Cell Viability Assay (Promega), while the medium of the other plates was supplemented with the test substances in various concentrations (0 μM, as well as in the range of 0.0001-10 μM; the final concentration of the solvent dimethyl sulfoxide was adjusted to 0.1%) using a Hewlett-Packard HP D300 Digital Dispenser. Cell viability was assessed after 72-hour exposure with the Cell Titre-Glo Luminescent Cell Viability Assay (Promega). IC50 values (inhibitory concentration at 50% of maximal effect) were determined by means of a 4 parameter fit on measurement data which were normalized to vehicle (DMSO) treated cells (=100%) and measurement readings taken immediately before compound exposure (=0%).

In another assay the test system is DU145 cells. Nature of the assay: Proliferation assay, DU145 (crystal violet). Particulars: Homo sapiens, DU-145, 96 h; DU145, 4 days; read-out: Inhibition of DU145 cell proliferation IC50. As for the experimental part: as §1
A further assay relates to NCI-H460 cells. The assay is described as follows: Proliferation assay, NCI-H460 (crystal violet). Particulars: Homo sapiens, 96 h; NCI-H460, 4 days; read-out: Inhibition of NCI-H460 cell proliferation IC50. As for the experimental part: as §1
A further assay concerns HeLa-MaTu-ADR cells. The assay is described as follows: Proliferation assay, HeLa-MaTu-ADR (crystal violet). Particulars: Homo sapiens, 96 h, 4 days, read-out: Inhibition of HeLa-MaTu-ADR cell proliferation IC50. The method, then: as §1

The structures appear in SMILES notation.

In the case of `CS(=N)(=O)Cc1cc2cc(c1)OCCCNc1cc(ccc1F)-c1nc(ncc1F)N2` (racemic) [Example 3, (rac)-3,19-difluoro-10-[(S-methylsulfonimidoyl)methyl]-13-oxa-5,7,17,24-tetraazatetracyclo[16.3.1.1^2,6.1^8,12]tetracosa-1(22),2(24),3,5,8(23),9,11,18,20-nonaene], the IC50 with Caco-2 cells came out at 20 nM; in the assay with MOLM-13 cells, 5.8 nM; with DU145 cells it was 17 nM; in the assay with NCI-H460 cells, 25 nM; in the assay with HeLa-MaTu-ADR cells, 23 nM.

On to `CS(=N)(=O)Cc1cc2cc(c1)OCCCCNc1cc(ccc1F)-c1nc(ncc1F)N2` (racemic) [Example 2, (rac)-3,20-difluoro-10-[(S-methylsulfonimidoyl)methyl]-13-oxa-5,7,18,25-tetraazatetracyclo[17.3.1.1^2,6.1^8,12]pentacosa-1(23),2(25),3,5,8(24),9,11,19,21-nonaene], for which the IC50 in the assay on Caco-2 cells was 8.4 nM; in the assay on MOLM-13 cells it was 2 nM; in the assay on DU145 cells, 4.5 nM; in the assay with NCI-H460 cells it was 9.2 nM; with HeLa-MaTu-ADR cells it was 5.3 nM.

For `CC(C)(C)OC(=O)N=S(C)(=O)Cc1cc2cc(c1)OCCCCNc1cc(ccc1F)-c1nc(ncc1F)N2` (racemic) [Example 1, (rac)-tert-butyl [{[3,20-difluoro-13-oxa-5,7,18,25-tetraazatetracyclo[17.3.1.1^2,6.1^8,12]pentacosa-1(23),2(25),3,5,8(24),9,11,19,21-nonaen-10-yl]methyl}(methyl)oxido-λ^6-sulfanylidene]carbamate], the IC50 with Caco-2 cells turned out to be 70 nM; in the assay on MOLM-13 cells, 7.1 nM; in the assay on DU145 cells, 36 nM; in the assay with NCI-H460 cells, 33 nM; in the assay with HeLa-MaTu-ADR cells, 46 nM.

(Values after patent US11691986B2, “PTEFB inhibiting macrocyclic compounds” (Bayer Aktiengesellschaft, priority 2017, dated 2023).)
